The results in this text go back to ChEMBL document CHEMBL4190169 (Medchemcomm, 2016).

The target of series [1] is T1, Prostaglandin G/H synthase 1 (Ovis aries, UniProt P05979).
T1 sequence (P05979 whole entry): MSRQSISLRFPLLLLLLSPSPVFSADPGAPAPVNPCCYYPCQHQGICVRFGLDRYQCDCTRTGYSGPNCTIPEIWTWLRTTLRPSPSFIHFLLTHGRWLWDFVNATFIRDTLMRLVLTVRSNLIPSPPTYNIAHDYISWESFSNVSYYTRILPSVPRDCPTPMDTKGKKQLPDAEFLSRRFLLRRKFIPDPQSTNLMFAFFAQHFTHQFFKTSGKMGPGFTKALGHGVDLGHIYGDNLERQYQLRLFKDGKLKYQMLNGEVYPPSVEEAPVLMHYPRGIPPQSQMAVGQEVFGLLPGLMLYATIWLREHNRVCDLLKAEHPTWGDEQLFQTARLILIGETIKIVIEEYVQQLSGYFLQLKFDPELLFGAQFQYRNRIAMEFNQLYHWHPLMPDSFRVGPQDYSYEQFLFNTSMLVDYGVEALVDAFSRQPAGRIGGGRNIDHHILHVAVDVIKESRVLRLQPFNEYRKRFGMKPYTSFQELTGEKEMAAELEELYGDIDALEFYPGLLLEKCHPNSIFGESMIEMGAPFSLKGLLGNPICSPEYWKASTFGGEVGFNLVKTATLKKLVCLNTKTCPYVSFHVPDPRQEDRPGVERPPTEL
Kind of series: Inhibition of ovine COX1 using arachidonic acid as substrate incubated for 5 mins followed by substrate addition measured after 2 mins by enzyme immunoassay.

Series [2] deals with Rattus norvegicus. Kind of series: Analgesic activity in gamma-irradiated carrageenan-induced Wistar rat hyperalgesia model assessed as nociceptive threshold at 100 mg/kg, ip administered 1 hr prior to carrageenan challenge measured after 3 hrs by analgesimetric analysis (reference value: 37.60 +/- 0.79 g). The class given is functional.
Series [3] concerns Rattus norvegicus. Kind of series: Antiinflammatory activity in gamma-irradiated carrageenan-induced Wistar rat paw edema model assessed as paw oedema at 100 mg/kg, ip administered 1 hr prior to carrageenan challenge measured after 3 hrs (reference value: 89.5 +/- 1.47%). The class given is functional. For orientation: In the carrageenan paw model, swelling and tenderness develop within hours.

Series [4] relates to Rattus norvegicus. Put plainly: Ulcerogenic activity in Wistar rat assessed as appearance of ulcers and erosions in stomach by measuring ulcer index at 100 mg/kg, po measured after 4 hrs. The class given is toxicity, organism-based. The note with it: in vivo.
The nature of series [5]: Acute toxicity in Swiss albino mouse assessed as mortality administered ip measured for 24 hrs. The class given is organism-based. Particulars: in vivo, read-out: ALD50.

Turning to `Nc1nnc(S)s1`, the IC50 – broadly, the concentration that inhibits the measured activity by half – in series [1] was more than 50 µM.

`Cc1ccc(/C=N/C2=NN3C(=O)CSC3S2)cc1` (stereo not given): in series [1], the IC50 is more than 50 µM.

Regarding `N#CC1=C(N)N=C2SC(=S)NN2C1c1ccc([N+](=O)[O-])cc1` (stereo not given), the IC50 in series [1] is more than 50 µM.

As for `O=S(=O)(Nc1ncccn1)c1ccc(NCNc2n[nH]c(=S)s2)cc1`, the IC50 in series [1] is more than 50 µM.

As for `COc1ccc(C2SCC(=O)N2c2n[nH]c(=S)s2)cc1` (stereo not given), the Activity in the series with Rattus norvegicus [2] is listed as 62.37 g; in the series on Rattus norvegicus [3], 31.5%. The IC50 in series [1] was 24 µM. The UI with Rattus norvegicus [4] was 0.26.

In the case of `S=C1NN2C(c3ccccc3)=CC(c3ccc(Cl)cc3)N=C2S1` (stereo not given), the Activity in the series on Rattus norvegicus [2] is listed as 78.51 g; in the series on Rattus norvegicus [3], 43.1%. Moreover, the IC50 in series [1] was determined as 30.7 µM. The UI with Rattus norvegicus [4] stood at 0.6.

Consider `N#CC1=C(N)N=C2SC(=S)NN2C1c1ccc(Cl)cc1` (stereo not given), for which the IC50 in series [1] is more than 50 µM.

Regarding `O=C1CSC2SC(/N=C/c3ccc(Br)cc3)=NN12` (stereo not given), the Activity in the series with Rattus norvegicus [2] is given as 44.91 g; with Rattus norvegicus [3] it was 50.49%. In series [1], the half-inhibitory concentration (IC50) is more than 50 µM. Also, in the series with Rattus norvegicus [4], the UI was 0.

Consider `S=c1[nH]nc(/N=C/c2ccc(Cl)cc2)s1`, for which the IC50 in series [1] was more than 50 µM.

Take `COc1ccc(C2C(C#N)=C(N)N=C3SC(=S)NN32)cc1` (stereo not given): the IC50 in series [1] is more than 50 µM.

In the case of `O=S(=O)(Nc1ccccn1)c1ccc(NCNc2n[nH]c(=S)s2)cc1`, the IC50 in series [1] was more than 50 µM.

In the case of `COc1ccc(/C=N/c2n[nH]c(=S)s2)cc1`, the Activity worked out at 56.3 g in the series on Rattus norvegicus [2] and 41.53% in the series with Rattus norvegicus [3]. Further, the midpoint of inhibition in series [1], the IC50, lay at 41.7 µM. Further, the UI in the series with Rattus norvegicus [4] turned out to be 0.38.

Consider `O=S(=O)(Nc1nccs1)c1ccc(NCNc2n[nH]c(=S)s2)cc1`, for which the figures for the Activity with Rattus norvegicus [2] and with Rattus norvegicus [3] were 90.21 g and 24.6%, respectively. The molecule also showed an IC50 in series [1] of more than 50 µM. In the series with Rattus norvegicus [4], the UI was 0. Also, in series [5], the LD50 at 24 h is more than 1000 mg/kg.

As to `N=c1cc(Nc2ccc(S(N)(=O)=O)cc2)n2[nH]c(=S)sc2n1`, the 50% inhibitory concentration (IC50) in series [1] is more than 50 µM.

For `Cc1ccc(C2SCC(=O)N2c2n[nH]c(=S)s2)cc1` (stereo not given), the IC50 in series [1] is more than 50 µM.

`S=C1NN2C(c3ccccc3)=CC(c3ccccc3Cl)N=C2S1` (stereo not given): in series [1], the half-maximal inhibitory concentration (IC50) is more than 50 µM.

For the molecule `CN(C)c1ccc(C2C=C(c3ccccc3)N3NC(=S)SC3=N2)cc1` (stereo not given), in series [1], the IC50 was more than 50 µM.

Consider `N=c1cc(Nc2ccc(S(=O)(=O)Nc3nccs3)cc2)n2[nH]c(=S)sc2n1`, for which the figures for the Activity in the series with Rattus norvegicus [2] and in the series with Rattus norvegicus [3] were 76.51 g and 25.13%, respectively. In addition, the IC50 in series [1] was more than 50 µM. In the series with Rattus norvegicus [4], the UI is 0.05. In series [5], the LD50 at 24 h is more than 1000 mg/kg.

On to `NS(=O)(=O)c1ccc(NCNc2n[nH]c(=S)s2)cc1`, for which the IC50 in series [1] is more than 50 µM.

As to `S=c1[nH]nc(/N=C/c2ccc(Br)cc2)s1`, the Activity came out at 95.6 g in the series on Rattus norvegicus [2] and 45.62% with Rattus norvegicus [3]. This molecule also came in with an IC50 in series [1] of more than 50 µM. The UI in the series with Rattus norvegicus [4] is 0.

As for `N=c1cc(Nc2ccc(S(=O)(=O)Nc3ccccn3)cc2)n2[nH]c(=S)sc2n1`, the values for the Activity in the series with Rattus norvegicus [2] and in the series on Rattus norvegicus [3] were 85.8 g and 24.21%, respectively. In series [1], the IC50 was more than 50 µM. Moreover, the UI in the series on Rattus norvegicus [4] is listed as 0.05. Further, the LD50 at 24 h in series [5] is more than 800 mg/kg.

The molecule `Cc1ccc(/C=N/c2n[nH]c(=S)s2)cc1` gave an IC50 in series [1] of more than 50 µM.

In the case of `CN(C)c1ccc(C2C(C#N)=C(N)N=C3SC(=S)NN32)cc1` (stereo not given), the results for the Activity in the series with Rattus norvegicus [2] and with Rattus norvegicus [3] were 53.88 g and 43.7%, respectively. Besides, in series [1], the IC50 was more than 50 µM. Also, the UI with Rattus norvegicus [4] came to 0.

As for `Cc1ccnc(NS(=O)(=O)c2ccc(NCNc3n[nH]c(=S)s3)cc2)n1`, the results for the Activity in the series on Rattus norvegicus [2] and with Rattus norvegicus [3] were 80.78 g and 25.31%, respectively. The IC50 in series [1] is more than 50 µM. In the series with Rattus norvegicus [4], the UI stood at 0.05. Further, the LD50 at 24 h in series [5] is more than 800 mg/kg.

Take `O=C1CSC(c2ccc(Br)cc2)N1c1n[nH]c(=S)s1` (stereo not given): the Activity in the series on Rattus norvegicus [2] amounted to 51.51 g; in the series on Rattus norvegicus [3], 25.07%. This molecule displayed an IC50 in series [1] of 1.32 µM. For the same molecule, the UI in the series with Rattus norvegicus [4] turned out to be 0.45. Also, in series [5], the LD50 at 24 h is more than 1000 mg/kg.

Molecule `O=C1CSC(c2ccc(Cl)cc2)N1c1n[nH]c(=S)s1` (stereo not given) came in with an IC50 in series [1] of more than 50 µM.

The molecule `S=C1NN2C(c3ccccc3)=CC(c3ccc(Br)cc3)N=C2S1` (stereo not given) showed a half-inhibitory concentration (IC50) in series [1] of more than 50 µM.

For `Cc1cc(C)nc(NS(=O)(=O)c2ccc(NCNc3n[nH]c(=S)s3)cc2)n1`, in series [1], the IC50 was more than 50 µM.

For `O=C1CSC2SC(/N=C/c3ccc(Cl)cc3)=NN12` (stereo not given), the IC50 in series [1] was more than 50 µM.

Take `N#CC1=C(N)N=C2SC(=S)NN2C1c1ccc(Br)cc1` (stereo not given): the Activity in the series on Rattus norvegicus [2] is listed as 60.51 g; in the series on Rattus norvegicus [3] it was 31.3%. The IC50 in series [1] is more than 50 µM. Moreover, in the series on Rattus norvegicus [4], the UI is 0.05.

Consider `COc1ccc(/C=N/C2=NN3C(=O)CSC3S2)cc1` (stereo not given), for which the results for the Activity with Rattus norvegicus [2] and in the series on Rattus norvegicus [3] were 54.13 g and 15.47%, respectively. The IC50 in series [1] is more than 50 µM. For the same molecule, the UI with Rattus norvegicus [4] was found to be 0.05. Moreover, in series [5], the LD50 at 24 h is more than 800 mg/kg.

In series [1], `N=c1cc(Nc2ccc(S(=O)(=O)Nc3ncccn3)cc2)n2[nH]c(=S)sc2n1` displayed an IC50 of more than 50 µM.

Turning to `COc1ccc(C2C=C(c3ccccc3)N3NC(=S)SC3=N2)cc1` (stereo not given), the Activity with Rattus norvegicus [2] stood at 66.6 g; in the series on Rattus norvegicus [3], 43.6%. Moreover, 1.34 µM corresponded to half-maximal inhibition in series [1] (IC50). For the same molecule, in the series with Rattus norvegicus [4], the UI was 0.64.

Take `N#CC1=C(N)N=C2SC(=S)NN2C1c1ccccc1` (stereo not given): the IC50 in series [1] is more than 50 µM.

For `Cc1ccc(-c2cc(C(F)(F)F)nn2-c2ccc(S(N)(=O)=O)cc2)cc1` [CELECOXIB], the results for the Activity in the series with Rattus norvegicus [2] and with Rattus norvegicus [3] were 90.23 g and 18.61%, respectively. Moreover, the UI in the series on Rattus norvegicus [4] is 0.
